Assay: Single dose toxicity study in dogs
Type: in vivo, dog
Details: beagle dogs, single oral dose 10, 30, 100 mg/kg
Protocol: Single Dose Toxicity Study in Dogs
The study was carried out with TOYO beagles (KITAYAMA LABES CO., LTD., Hongou farm), four dogs per each sex. They were 5-month old on arrival at testing facility, and were 10-month old when started to be administered. Basal diet was 300 g/day, DS-A (Oriental Yeast Co., Ltd.), and drinking water was tap water. Allocation to the groups was carried out so that an animal number was allocated in order of quarantine number for males and females respectively whose clinical signs and results of clinical laboratory test were considered to be normal.
As to a dosing suspension, 0.5 w/v % HPMC aqueous solution was used as a vehicle, the required amounts of test compound were pre-weighed for each dose group, and it was prepared in a specified concentration with mortar and pestleon the day of administration. Dose volume was 5 mL/kg (calculated on the basis of body weight measured on the day of administration). […]
A clinical sign was observed before administration and during TK blood sampling on the day of administration, and once in the morning every day on the day other than administration. Body weight was measured in the pre-dosing term (−5th day, −1st day), on the day of administration and on the next day after administration.
Feeding was carried out every day, and food consumption (g/day) was calculated from the remaining food in the next morning after feeding. […]

Question: With `Cc1c(C(=O)Nc2cnc(N3CCC(O)CC3)c(C3CC3)c2)cnn1-c1ccc(Cl)cc1` [Example 39, 1-(4-chlorophenyl)-N-[5-cyclopropyl-6-(4-hydroxypiperidin-1-yl)pyridin-3-yl]-5-methyl-1H-pyrazole-4-carboxamide] as the molecule, how does the “Changes caused by administration (clinical signs, body weight, food consumption, hematology, blood chemistry incl. ALT, AST, TBil)” value read?
Answer: no changes caused by administration were found in any doses

From patent US9527859B2, “Amidopyridine derivative and use thereof” (Mitsubishi Tanabe Pharma Corporation, priority 2012, dated 2016)
